Test results as given in ChEMBL document CHEMBL3046544, “Inhibitory Activity of N-Substituted-2-piperidones with a 1, 4-Benzodioxan Ring on Germination of Barnyardgrass” (J Pestic Sci, 2001).

Legend:
[1] = tested on: Echinochloa esculenta; assay: Herbicidal activity against Echinochloa esculenta assessed as inhibition of seed germination at 100 nM after 5 days relative to control; format: functional; details: 120 h
[2] = tested on: Echinochloa esculenta; assay: Herbicidal activity against Echinochloa esculenta assessed as inhibition of seed germination at 1 nM after 5 days relative to control; format: functional; details: 120 h
[3] = tested on: Echinochloa esculenta; assay: Herbicidal activity against Echinochloa esculenta assessed as inhibition of seed germination at 1000 nM after 5 days relative to control; format: functional; details: 120 h
[4] = tested on: Echinochloa esculenta; assay: Herbicidal activity against Echinochloa esculenta assessed as inhibition of seed germination at 10 nM after 5 days relative to control; format: functional; details: 120 h
[5] = tested on: Echinochloa esculenta; assay: Herbicidal activity against Echinochloa esculenta assessed as inhibition of seed germination at 0.1 nM after 5 days relative to control; format: functional; details: 120 h
[6] = tested on: Echinochloa esculenta; assay: Herbicidal activity against Echinochloa esculenta assessed as inhibition of seed germination after 5 days relative to control; format: functional, organism-based; details: 120 h
[7] = tested on: Oryza sativa; assay: Herbicidal activity against Oryza sativa (rice) assessed as inhibition of seed germination after 7 days relative to control; format: functional, organism-based; details: 168 h

SMILES | inhibition at 0.1 µM [1] [%] | inhibition at 0.001 µM [2] [%] | inhibition at 1 µM [3] [%] | inhibition at 0.01 µM [4] [%] | inhibition at 0.0001 µM [5] [%] | IC50 [6] [nM] | IC50 [7] [nM]
CC(C)C(O)C1CCCN(Cc2ccccc2)C1=O (mixture of isomers) | < 49 | < 49 | < 49 | < 49 | – | – | –
CC(C)CCC(O)C1CCCN(Cc2ccccc2)C1=O (mixture of isomers) | 50 | < 49 | 50 | < 49 | – | – | –
O=C1C(C(O)C2CCCCC2)CCCN1Cc1ccccc1 (mixture of isomers) | < 49 | < 49 | < 49 | < 49 | – | – | –
O=C1C(C(O)c2ccccc2)CCCN1Cc1ccccc1 (mixture of isomers) | < 49 | < 49 | > 90 | < 49 | – | – | –
O=C1C(C(O)C/C=C/c2ccccc2)CCCN1Cc1ccccc1 (mixture of isomers) | 50 | < 49 | 50 | < 49 | – | – | –
Cc1ccccc1C(O)C1CCCN(Cc2ccccc2)C1=O (mixture of isomers) | < 49 | < 49 | > 90 | < 49 | – | – | –
Cc1cccc(C(O)C2CCCN(Cc3ccccc3)C2=O)c1 (mixture of isomers) | < 49 | < 49 | > 90 | < 49 | – | – | –
Cc1ccc(C(O)C2CCCN(Cc3ccccc3)C2=O)cc1 (mixture of isomers) | < 49 | < 49 | > 90 | < 49 | – | – | –
COc1ccccc1C(O)C1CCCN(Cc2ccccc2)C1=O (mixture of isomers) | < 49 | < 49 | 50 | < 49 | – | – | –
COc1cccc(C(O)C2CCCN(Cc3ccccc3)C2=O)c1 (mixture of isomers) | < 49 | < 49 | < 49 | < 49 | – | – | –
COc1ccc(C(O)C2CCCN(Cc3ccccc3)C2=O)cc1 (mixture of isomers) | < 49 | < 49 | > 90 | < 49 | – | – | –
O=C1C(C(O)c2ccccc2Cl)CCCN1Cc1ccccc1 (mixture of isomers) | < 49 | < 49 | > 90 | < 49 | – | – | –
O=C1C(C(O)c2cccc(Cl)c2)CCCN1Cc1ccccc1 (mixture of isomers) | < 49 | < 49 | > 90 | < 49 | – | – | –
O=C1C(C(O)c2ccc(Cl)cc2)CCCN1Cc1ccccc1 (mixture of isomers) | 50 | < 49 | > 90 | < 49 | – | – | –
O=C1C(C(O)c2ccccc2[N+](=O)[O-])CCCN1Cc1ccccc1 (mixture of isomers) | < 49 | < 49 | 50 | < 49 | – | – | –
O=C1C(C(O)c2cccc([N+](=O)[O-])c2)CCCN1Cc1ccccc1 (mixture of isomers) | < 49 | < 49 | 50 | < 49 | – | – | –
O=C1C(C(O)c2ccc([N+](=O)[O-])cc2)CCCN1Cc1ccccc1 (mixture of isomers) | < 49 | < 49 | 50 | < 49 | – | – | –

SMILES | inhibition at 0.1 µM [1] [%] | inhibition at 0.001 µM [2] [%] | inhibition at 1 µM [3] [%] | inhibition at 0.01 µM [4] [%] | inhibition at 0.0001 µM [5] [%] | IC50 [6] [nM] | IC50 [7] [nM]
O=C1C(C(O)c2ccccc2C(F)(F)F)CCCN1Cc1ccccc1 (mixture of isomers) | < 49 | < 49 | 50 | < 49 | – | – | –
O=C1C(C(O)c2ccc(C(F)(F)F)cc2)CCCN1Cc1ccccc1 (mixture of isomers) | < 49 | < 49 | 50 | < 49 | – | – | –
O=C1C(C(O)c2ccc3c(c2)OCO3)CCCN1Cc1ccccc1 (mixture of isomers) | < 49 | < 49 | < 49 | < 49 | – | – | –
O=C1C(C(O)c2cccc(O)c2)CCCN1Cc1ccccc1 (mixture of isomers) | < 49 | < 49 | 50 | < 49 | – | – | –
O=C1C(C(O)c2ccc(O)cc2)CCCN1Cc1ccccc1 (mixture of isomers) | < 49 | < 49 | 50 | < 49 | – | – | –
O=C1C(C(O)c2ccc(O)c(O)c2)CCCN1Cc1ccccc1 (mixture of isomers) | < 49 | < 49 | 50 | < 49 | – | – | –
COc1ccc(C(O)C2CCCN(Cc3ccccc3)C2=O)c(OC)c1 (mixture of isomers) | < 49 | < 49 | < 49 | < 49 | – | – | –
COc1ccc(C(O)C2CCCN(Cc3ccccc3)C2=O)cc1OC (mixture of isomers) | 50 | < 49 | > 90 | < 49 | – | – | –
O=C1C(C(O)c2cccc(Oc3ccccc3)c2)CCCN1Cc1ccccc1 (mixture of isomers) | < 49 | < 49 | 50 | < 49 | – | – | –
O=C1C(C(O)c2ccc(Oc3ccccc3)cc2)CCCN1Cc1ccccc1 (mixture of isomers) | < 49 | < 49 | < 49 | < 49 | – | – | –
O=C1C(C(O)c2ccc(Cl)cc2Cl)CCCN1Cc1ccccc1 (mixture of isomers) | < 49 | < 49 | 50 | < 49 | – | – | –
O=C1C(C(O)c2ccc(Cl)c(Cl)c2)CCCN1Cc1ccccc1 (mixture of isomers) | < 49 | < 49 | 50 | < 49 | – | – | –
O=C1C(C(O)c2cccc3ccccc23)CCCN1Cc1ccccc1 (mixture of isomers) | < 49 | < 49 | < 49 | < 49 | – | – | –
O=C1C(C(O)c2ccc3c(c2)OCCO3)CCCN1CC=C(c1ccccc1)c1ccccc1 (mixture of isomers) | > 90 | < 49 | > 90 | > 90 | < 49 | – | –
O=C1[C@H]([C@@H](O)c2ccc3c(c2)OCCO3)CCCN1C/C=C/c1ccccc1 (relative stereo) | – | – | – | – | – | > 1000 | > 1000
O=C1[C@@H]([C@@H](O)c2ccc3c(c2)OCCO3)CCCN1C/C=C/c1ccccc1 (relative stereo) | – | – | – | – | – | 0.8 | 8.1
O=C1[C@H]([C@@H](O)c2ccc3c(c2)OCCO3)CCCN1Cc1ccccc1 (relative stereo) | – | – | – | – | – | > 1000 | > 1000
